Assay results as given in PMC10840383, “Clinical features, functional consequences, and rescue pharmacology of missense GRID1 and GRID2 human variants” (Human Molecular Genetics, 2023).
“Also recorded” adds a separate entry of the source.

Molecular target: T1, GluD2-A654T-D535E (Rattus norvegicus, UniProt Q63226, A654T/D535E)
T1 construct: expressed in transfected cells; host or cells: Xenopus laevis oocytes injected with cRNA
T1 sequence (Q63226 24-1007 D535E/A654T): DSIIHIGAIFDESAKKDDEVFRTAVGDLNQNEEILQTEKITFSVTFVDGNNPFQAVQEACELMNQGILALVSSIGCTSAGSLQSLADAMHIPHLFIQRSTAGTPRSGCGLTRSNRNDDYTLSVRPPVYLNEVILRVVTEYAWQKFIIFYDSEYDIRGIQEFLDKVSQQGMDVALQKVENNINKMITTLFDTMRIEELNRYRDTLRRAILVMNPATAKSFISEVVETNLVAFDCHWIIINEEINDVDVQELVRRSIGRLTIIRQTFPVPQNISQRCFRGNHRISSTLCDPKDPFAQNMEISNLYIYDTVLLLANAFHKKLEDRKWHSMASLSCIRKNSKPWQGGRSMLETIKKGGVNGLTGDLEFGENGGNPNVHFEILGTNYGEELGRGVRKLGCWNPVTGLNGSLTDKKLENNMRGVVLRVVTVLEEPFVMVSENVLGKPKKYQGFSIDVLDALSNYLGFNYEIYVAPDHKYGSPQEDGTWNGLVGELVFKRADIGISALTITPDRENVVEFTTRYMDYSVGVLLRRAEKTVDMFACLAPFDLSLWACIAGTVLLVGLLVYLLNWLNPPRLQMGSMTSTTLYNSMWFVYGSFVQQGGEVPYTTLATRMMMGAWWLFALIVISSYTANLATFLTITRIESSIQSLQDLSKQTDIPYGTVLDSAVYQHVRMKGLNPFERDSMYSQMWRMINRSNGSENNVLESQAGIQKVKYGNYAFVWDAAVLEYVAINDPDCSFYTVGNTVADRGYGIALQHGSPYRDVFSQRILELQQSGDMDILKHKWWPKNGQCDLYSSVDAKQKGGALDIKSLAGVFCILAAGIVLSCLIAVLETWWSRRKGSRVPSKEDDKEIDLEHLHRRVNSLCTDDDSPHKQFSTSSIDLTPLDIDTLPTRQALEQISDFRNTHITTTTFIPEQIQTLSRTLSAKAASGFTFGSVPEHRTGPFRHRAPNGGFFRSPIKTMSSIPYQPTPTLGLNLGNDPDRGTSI
Assay: TEVC of constitutive current, Xenopus oocytes expressing GluD2-A654T-D535E
Assay type: cell-based
Conditions: for Effect on constitutive current, in words: compared to GluD2-A654T
Source text: Human GluD1 (GRID1) and rat GluD2 (Grid2) cDNAs were introduced into the pGEM-HE and pCI-neo vectors. GRID1 (NM_017551.3) gene fragments were synthesized by Integrated DNA Technologies and cloned into empty vectors using InFusion cloning (Clontech). […] However, rat and human GluD2-encoding cDNA are identical in the M3 domain in which many of the variants we studied reside (see Supplementary Fig. S1). The full open reading frame for both constructs were verified by Sanger sequencing (Eurofins) and the full plasmid sequence was verified by whole plasmid sequencing (plasmidsaurus). Variant cDNA changes identified in patients were introduced into the cloned human GRID1 (NM_017551.3) in pGEM-HE and cloned rat Grid2 cDNA sequence (NM_024379.1) in pGEM-HE vector using Quikchange Lightning (Agilent) protocol according to the manufacturer’s instructions. Vectors were linearized and cRNA was synthesized using T7 RNA mMESSAGE kit (Invitrogen).
Xenopus laevis oocytes were prepared from ovaries purchased from Xenopus 1 (Dexter, MI) as previously described, [68] and incubated at 16°C in culture Barth’s solution (in mM) 88 NaCl, 2.4 NaHCO3, 1 KCl, 0.33 Ca(NO3)2, 0.41 CaCl2, 0.82 MgSO4, 10 HEPES, pH 7.4 with NaOH, supplemented with 1 U/ml penicillin and 1 μg/ml streptomycin. Oocytes were injected with approximately 5–40 ng RNA per oocyte and then incubated at 16–19°C for 1–3 days in culture Barth’s solution. […] Two-electrode voltage clamp (TEVC) recordings were performed as previously described. Unless otherwise specified, extracellular solution contained (in mM) 90 NaCl, 3 KCl, 0.5 BaCl2, 0.01 EDTA, 10 HEPES, and was brought to pH 7.4 with NaOH. The oocytes were placed in a dual track recording chamber and gravity perfused with solution exchange controlled via a computer-driven 8-valve positioner (Digital MVP Valve). […] Recording electrodes were filled with 0.3 M KCl, and currents were recorded with membrane voltage held at −40 mV. To establish constitutive activity of recombinant receptors when compared to wild type receptors, we used the oocyte recording solution described above, but with 90 mM N-methyl-D-glucamine (NMDG) chloride replacing 90 mM NaCl. […] For Ca^2+ concentration-response curves, choline chloride was used to maintain equimolar concentrations of Cl^− ions in the extracellular solution across the changing concentrations of calcium chloride. All compounds used in this study for concentration-response oocyte recordings were dissolved in deionized water as 50–100 mM stock solutions. In some rescue pharmacology experiments, we substituted 1 mM CaCl2 for 0.5 mM BaCl2 to evaluate Ca^2+-dependent control of receptor responses.
Data are represented as mean ± SEM. Statistical significance of logEC50 or logIC50 was determined by one-way analysis of variance (ANOVA) with a Dunnett’s multiple comparisons post-hoc test with a significance threshold of P < 0.05. Sample sizes were adjusted so that the power to detect an effect size of 1 was > 0.9 (GPower 3.1). All error bars on figures represent the SEM.

EC50 (modulation of constitutive current, inhibited by Ca2+ (not potentiated), read-out: Ca2+ EC50 [95% CI]) [mM] | Ca2+ % Max (NMDG+ − Na+) Mean ± SEM (normalized to NMDG+ − Na+ difference current) | D-serine % Max (NMDG+ − Na+) Mean ± SEM (percent of constitutive leak current (NMDG+/Na+ difference current)) | SMILES | Effect on constitutive current, in words
5.6 | 70 ± 2.0 (15) % |  | [Ca+2] [Ca^2+] | weakly inhibited; also recorded: complete loss of Ca^2+ potentiation
 |  | 60 ± 2.2 (15) % | N[C@H](CO)C(=O)O [D-serine] | modestly reduced D-serine potency
